The values below are quoted from earlier work in PMC13041344 (Antimicrobial Agents and Chemotherapy, 2026).

The term Cmax denotes the highest concentration seen after dosing.

The conditions of the data set: humans; 2 g q8h as a 3-h infusion.

On to `C[C@@H](O)[C@H]1C(=O)N2C(C(=O)O)=C(S[C@@H]3CN[C@H](C(=O)N(C)C)C3)[C@H](C)[C@H]12` [MEM, meropenem], for which the Cmax was 46000 ng/mL.
